Measured values reported in patent publication US8729078B2, “Inhibitors of bruton's tyrosine kinase” (Hoffmann-La Roche Inc., priority 2011, dated 2014).
pIC50: −log10 of the molar value.

Assays:
[1] = molecular target: Btk (Homo sapiens (Human), UniProt Q06187); assay: Bruton's Tyrosine Kinase (Btk) inhibition assay (FRET BTK); assay type: biochemical
[2] = tested on: Ramos cells; assay: Inhibition of B-cell activation, B cell FLIPR assay in Ramos cells (anti-IgM stimulated calcium increase); assay type: cell-based; settings: Homo sapiens, anti-IgM stimulated Ca2+ signaling
Source text: Inhibition of B-Cell Activation—B Cell FLIPR Assay in Ramos Cells
The B cell FLIPR assay is a cell based functional method of determining the effect of potential inhibitors of the intracellular calcium increase from stimulation by an anti-IgM antibody. Ramos cells (human Burkitt's lymphoma cell line. ATCC-No. CRL-1596) were cultivated in Growth Media (described below). One day prior to assay, Ramos cells were resuspended in fresh growth media (same as above) and set at a concentration of 0.5×10^6/mL in tissue culture flasks. On day of assay, cells are counted and set at a concentration of 1×10^6/mLl in growth media supplemented with 1 μM FLUO-3AM (TefLabs Cat-No. 0116, prepared in anhydrous DMSO and 10% Pluronic acid) in a tissue culture flask, and incubated at 37° C. (4% CO2) for one h. To remove extracellular dye, cells were collected by centrifugation (5 min, 1000 rpm), resuspended in FLIPR buffer (described below) at 1×10^6 cells/mL and then dispensed into 96-well poly-D-lysine coated black/clear plates (BD Cat-No. 356692) at 1×10^5 cells per well. Test compounds were added at various concentrations ranging from 100 μM to 0.03 μM (7 concentrations, details below), and allowed to incubate with cells for 30 min at RT. Ramos cell Ca^2+ signaling was stimulated by the addition of 10 μg/mL anti-IgM (Southern Biotech, Cat-No. 2020-01) and measured on a FLIPR (Molecular Devices, captures images of 96 well plates using a CCD camera with an argon laser at 480 nm excitation).
Growth Medium: RPMI 1640 medium with L-glutamine (Invitrogen, Cat-No. 61870-010), 10% Fetal Bovine Serum (FBS, Summit Biotechnology Cat-No. FP-100-05); 1 mM Sodium Pyruvate (Invitrogen Cat. No. 11360-070).
FLIPR buffer: HBSS (Invitrogen, Cat-No. 141175-079), 2 mM CaCl2 (Sigma Cat-No. C-4901), HEPES (Invitrogen, Cat-No. 15630-080), 2.5 mM Probenecid (Sigma, Cat-No. P-8761), 0.1% BSA (Sigma, Cat-No. A-7906), 11 mM Glucose (Sigma, Cat-No. G-7528)
Compound Dilution Details:
In order to achieve the highest final assay concentration of 100 μM, 24 μL of 10 mM compound stock solution (made in DMSO) is added directly to 576 μL of FLIPR buffer. The test compounds are diluted in FLIPR Buffer (using Biomek 2000 robotic pipettor) resulting in the following dilution scheme: vehicle, 1.00×10^−4 M, 1.00×10^−5, 3.16×10^−6, 1.00×10^−6, 3.16×10^−7, 1.00×10^−7, 3.16×10^−8.
Intracellular increases in calcium were reported using a max-min statistic (subtracting the resting baseline from the peak caused by addition of the stimulatory antibody using a Molecular Devices FLIPR control and statistic exporting software. The IC50 was determined using a non-linear curve fit (GraphPad Prism software).

[3] = tested on: B cells in human whole blood (CD69 expression); assay: Inhibition of B cell activation in whole blood measured by CD69 expression; assay type: cell-based; settings: anti-IgM stimulation, CD69-positive CD20-positive cells
Experimental: Inhibition of B Cell Activation in Whole Blood Measured by CD69 Expression
A procedure to test the ability of Btk inhibitors to suppress B cell receptor-mediated activation of B cells in human blood is as follows:
Human whole blood (HWB) is obtained from healthy volunteers, with the following restrictions: 24 hr drug-free, non-smokers. Blood is collected by venipuncture into Vacutainer tubes anticoagulated with sodium heparin. Test compounds are diluted to ten times the desired starting drug concentration in PBS (20×), followed by three-fold serial dilutions in 10% DMSO in PBS to produce a nine point dose-response curve. 5.5 μl of each compound dilution is added in duplicate to a 2 ml 96-well V bottom plate (Analytical Sales and Services, #59623-23); 5.5 μl of 10% DMSO in PBS is added to control and no-stimulus wells. HWB (100 μl) is added to each well, and after mixing the plates are incubated at 37 C, 5% CO2, 100% humidity for 30 minutes. Goat F(ab′)2 anti-human IgM (Southern Biotech, #2022-14) (10 μl of a 500 μg/ml solution, 50 μg/ml final concentration) is added to each well (except the no-stimulus wells) with mixing and the plates are incubated for an additional 20 hours.
At the end of the 20 hour incubation, samples are incubated with florescent-probe-labeled anti-bodies (15 μl PE Mouse anti-Human CD20, BD Pharmingen, #555623, and/or 20 ul APC Mouse anti-Human CD69, BD Pharmingen #555533) for 30 minutes, at 37 C, 5% CO2, 100% humidity. Included are induced control, unstained and single stains for compensation adjustments and initial voltage settings. Samples are then lysed with 1 ml of 1× Pharmingen Lyse Buffer (BD Pharmingen #555899), and plates are centrifuged at 1800 rpm for 5 minutes. Supernatants are removed via suction and the remaining pellets are lysed again with another 1 ml of 1× Pharmingen Lyse Buffer, and plates are spun down as before. Supernatants are aspirated and remaining pellets are washed in FACs buffer (PBS+1% FBS). After a final spin, the supernantants are removed and pellets are resuspended in 180 μl of FACs buffer. Samples are transferred to a 96 well plate suitable to be run on the HTS 96 well system on the BD LSR II flow cytometer.
Using appropriate excitation and emission wavelengths for the fluorophores used, data are acquired and percent positive cell values are obtained using Cell Quest Software. Results are initially analyzed by FACS analysis software (Flow Jo). […] The IC50 values are calculated using XLfit software version 3, equation 201.

Btk, sequence (Q06187 whole entry): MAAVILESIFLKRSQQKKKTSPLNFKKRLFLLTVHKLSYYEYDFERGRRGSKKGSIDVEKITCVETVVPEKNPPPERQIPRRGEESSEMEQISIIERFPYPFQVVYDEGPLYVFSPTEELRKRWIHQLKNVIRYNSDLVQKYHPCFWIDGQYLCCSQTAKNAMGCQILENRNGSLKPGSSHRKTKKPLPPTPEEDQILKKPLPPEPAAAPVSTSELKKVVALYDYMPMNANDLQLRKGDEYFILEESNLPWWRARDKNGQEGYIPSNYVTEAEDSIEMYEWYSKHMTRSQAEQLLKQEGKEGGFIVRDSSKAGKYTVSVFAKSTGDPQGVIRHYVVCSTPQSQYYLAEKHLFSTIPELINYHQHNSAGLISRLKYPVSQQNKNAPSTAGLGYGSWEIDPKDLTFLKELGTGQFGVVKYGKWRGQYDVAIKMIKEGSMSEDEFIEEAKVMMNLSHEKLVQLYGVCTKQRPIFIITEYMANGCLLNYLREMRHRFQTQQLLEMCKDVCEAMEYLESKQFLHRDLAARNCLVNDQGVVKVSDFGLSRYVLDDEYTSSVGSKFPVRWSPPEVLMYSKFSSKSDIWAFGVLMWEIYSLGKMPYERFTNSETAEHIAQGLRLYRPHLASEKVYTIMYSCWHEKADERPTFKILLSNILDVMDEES

| SMILES | pIC50 [1] | pIC50 [2] | pIC50 [3] |
| --- | --- | --- | --- |
| CC(C)(C)c1ccc2c(=O)n(-c3cccc(-c4nc(C(N)=O)cs4)c3CO)ncc2c1 [Compound I-2, 2-[3-(6-tert-Butyl-1-oxo-1H-phthalazin-2-yl)-2-hydroxymethyl-phenyl]-thiazole-4-carboxylic acid amide] | 6.55 | 5.80 |  |
| Cn1cc(-c2ccnc(-n3ncc4cc(C(C)(C)C)cc(F)c4c3=O)c2CO)cc1C(N)=O [Compound I-16, 4-[2-(6-tert-Butyl-8-fluoro-1-oxo-1H-phthalazin-2-yl)-3-hydroxymethyl-pyridin-4-yl]-1-methyl-1H-pyrrole-2-carboxylic acid amide] | 7.70 | 6.57 | 5.84 |
| CC(C)(C)c1cc(F)c2c(=O)n(-c3cccc(-n4cc(C(N)=O)c5cccnc54)c3CO)ncc2c1 [Compound I-15, 1-[3-(6-tert-Butyl-8-fluoro-1-oxo-1H-phthalazin-2-yl)-2-hydroxymethyl-phenyl]-1H-pyrrolo[2,3-b]pyridine-3-carboxylic acid amide] | 8.49 | 7.40 | 6.12 |
| Cn1cc(-c2cccc(-n3ncc4cc(C(C)(C)C)ccc4c3=O)c2CO)nc1C(N)=O [Compound I-1, 4-[3-(6-tert-Butyl-1-oxo-1H-phthalazin-2-yl)-2-hydroxymethyl-phenyl]-1-methyl-1H-imidazole-2-carboxylic acid amide] | 7.30 | 4.95 |  |
